In US20250215030A1, “STAT MODULATORS AND USES THEREOF” (Recludix Pharma, Inc., priority 2022, published 2025):

Columns and labels:
[1] = molecular target: T1, Recombinant STAT3 protein (STAT3(G127-I722)) (Homo sapiens, UniProt P40763); experiment: STAT3 Fluorescence Polarization (FP) Assay; type: binding; details: STAT3(G127-I722) 25 nM, probe 5-FAM-GpYLPQTV-NH2 2 nM, 45-minute incubation
T1 construct: STAT3(G127-I722)
Experimental: STAT3 Fluorescence Polarization (FP) Assay
An FP assay was developed to determine IC50 values for test substances. Recombinant STAT3 protein (STAT3(G127-I722)) at 25 nM was combined with a fluorescently labeled, phosphotyrosine peptide probe (5-FAM-GpYLPQTV-NH2) at 2 nM in FP buffer (10 mM HEPES pH 7.4, 50 mM NaCl, 1 mM EDTA, 0.05% Tween 20, 2 mM DTT). 50 μL of STAT3-probe mixture was added to serial diluted compounds in black, 96-well plates (Greiner BioOne 655076) to a final concentration of 1% DMSO. Reaction components were mixed, and FP was measured after 45-minute incubation at room temperature using a Tecan Spark multimode plate reader. FP signal (mP) was plotted against the log concentration of the test substances and IC50 values were calculated by nonlinear regression analysis using GraphPad Prism software. For STAT3 FP assay, A=≤100 nM; B=>100-1000 nM; C=>1-10 μM; and D=>10 μM.

[2] = molecular target: T2, Recombinant STAT6 protein (STAT6(W123-T658)) (Homo sapiens, UniProt P42226); experiment: STAT6 Fluorescence Polarization (FP) Assay; type: binding; details: STAT6(W123-T658) 250 nM, probe 5-FAM-ApYKPFQDLI-NH2 2 nM, 45-minute incubation
T2 construct: STAT6(W123-T658)
T2 sequence (P42226 123-658): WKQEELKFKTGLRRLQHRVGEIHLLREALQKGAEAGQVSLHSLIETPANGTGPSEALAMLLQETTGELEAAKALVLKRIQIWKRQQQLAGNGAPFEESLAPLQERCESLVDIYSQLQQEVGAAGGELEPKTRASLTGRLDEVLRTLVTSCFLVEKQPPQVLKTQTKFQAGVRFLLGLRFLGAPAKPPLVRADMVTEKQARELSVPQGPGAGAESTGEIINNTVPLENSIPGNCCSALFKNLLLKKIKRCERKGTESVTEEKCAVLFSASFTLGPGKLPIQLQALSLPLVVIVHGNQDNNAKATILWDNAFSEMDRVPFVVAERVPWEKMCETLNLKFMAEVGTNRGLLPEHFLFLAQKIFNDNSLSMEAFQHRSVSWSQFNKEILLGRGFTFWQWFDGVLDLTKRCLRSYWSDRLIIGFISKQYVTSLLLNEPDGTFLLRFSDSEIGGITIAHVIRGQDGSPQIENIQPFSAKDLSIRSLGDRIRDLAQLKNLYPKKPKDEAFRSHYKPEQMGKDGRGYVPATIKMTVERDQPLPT
Experimental: STAT6 Fluorescence Polarization (FP) Assay
An FP assay was developed to determine IC50 values for test substances. Recombinant STAT6 protein (STAT6(W123-T658)) at 250 nM was combined with a fluorescently labeled, phosphotyrosine peptide probe (5-FAM-ApYKPFQDLI-NH2) at 2 nM in FP buffer (10 mM HEPES pH 7.4, 50 mM NaCl, 1 mM EDTA, 0.05% Tween 20, 2 mM DTT). 50 μL of STAT6-probe mixture was added to serial diluted compounds in black, 96-well plates (Greiner BioOne 655076) to a final concentration of 1% DMSO. Reaction components were mixed, and FP was measured after 45-minute incubation at room temperature using a Tecan Spark multimode plate reader. FP signal (mP) was plotted against the log concentration of the test substances and IC50 values were calculated by nonlinear regression analysis using GraphPad Prism software. For STAT6 FP assay, A=≤300 nM; B=>300-3000 nM; C=>3-30 μM; and D=>30 μM.

T1 sequence (P40763 127-722, species assumed): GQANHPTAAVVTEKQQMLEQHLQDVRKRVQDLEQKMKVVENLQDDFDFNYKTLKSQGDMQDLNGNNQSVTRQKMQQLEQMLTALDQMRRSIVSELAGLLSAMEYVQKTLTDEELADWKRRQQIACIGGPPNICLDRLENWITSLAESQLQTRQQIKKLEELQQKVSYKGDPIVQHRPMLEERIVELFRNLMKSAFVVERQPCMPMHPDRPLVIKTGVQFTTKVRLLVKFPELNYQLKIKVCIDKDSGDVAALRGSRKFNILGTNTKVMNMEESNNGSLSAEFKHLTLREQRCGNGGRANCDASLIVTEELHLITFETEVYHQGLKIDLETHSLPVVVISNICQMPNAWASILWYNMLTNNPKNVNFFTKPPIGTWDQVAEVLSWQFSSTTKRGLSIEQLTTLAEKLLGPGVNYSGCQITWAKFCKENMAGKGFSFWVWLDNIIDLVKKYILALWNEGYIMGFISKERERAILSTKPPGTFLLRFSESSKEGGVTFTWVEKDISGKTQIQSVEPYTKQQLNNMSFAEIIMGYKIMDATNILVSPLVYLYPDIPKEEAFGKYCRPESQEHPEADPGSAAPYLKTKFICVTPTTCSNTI

SMILES | IC50 [1] | IC50 [2]
C[C@H]1CN(C(=O)C2CN(C(=O)[C@@H]3CC[C@@H]4C[C@H]5C[C@H]5C[C@H](NC(=O)c5cc6cc(C(F)(F)P(=O)(O)O)ccc6s5)C(=O)N43)C2)CCO1 [Compound 12, (difluoro(2-(((3S,6S,7aS,8aR,9aR)-3-(3-((S)-2-methylmorpholine-4-carbonyl)azetidine-1-carbonyl)-5-oxodecahydro-1H-cyclopropa[d]pyrrolo[1,2-a]azocin-6-yl)carbamoyl)benzo[b]thiophen-5-yl)methyl)phosphonic acid] | < 0.1 µM | 3 to 30 µM
C[C@@H]1COCCN1C(=O)C1CN(C(=O)[C@@H]2CC[C@@H]3C[C@H]4C[C@H]4C[C@H](NC(=O)c4cc5cc(C(F)(F)P(=O)(O)O)ccc5s4)C(=O)N32)C1 [Compound 13, (difluoro(2-(((3S,6S,7aS,8aR,9aR)-3-(3-((R)-3-methylmorpholine-4-carbonyl)azetidine-1-carbonyl)5-oxodecahydro-1H-cyclopropa[d]pyrrolo[1,2-a]azocin-6-yl)carbamoyl)benzo[b]thiophen-5-yl)methyl)phosphonic acid] | < 0.1 µM | 3 to 30 µM
C[C@H]1COCCN1C(=O)C1CN(C(=O)[C@@H]2CC[C@@H]3C[C@H]4C[C@H]4C[C@H](NC(=O)c4cc5cc(C(F)(F)P(=O)(O)O)ccc5s4)C(=O)N32)C1 [Compound 14, (difluoro(2-(((3S,6S,7aS,8aR,9aR)-3-(3-((S)-3-methylmorpholine-4-carbonyl)azetidine-1-carbonyl)-5-oxodecahydro-1H-cyclopropa[d]pyrrolo[1,2-a]azocin-6-yl)carbamoyl)benzo[b]thiophen-5-yl)methyl)phosphonic acid] | < 0.1 µM | 3 to 30 µM
O=C(N[C@H]1C[C@@H]2C[C@@H]2C[C@H]2CC[C@@H](C(=O)N3CC(C(=O)N4CCOCC4)C3)N2C1=O)c1cc2cc(C(F)(F)P(=O)(O)O)ccc2s1 [Compound 15, (difluoro(2-(((3S,6S,7aS,8aR,9aR)-3-(3-(morpholine-4-carbonyl)azetidine-1-carbonyl)-5-oxodecahydro-1H-cyclopropa[d]pyrrolo[1,2-a]azocin-6-yl)carbamoyl)benzo[b]thiophen-5-yl)methyl)phosphonic acid] | < 0.1 µM | 3 to 30 µM
O=C(N[C@H]1C[C@@H]2C[C@@H]2C[C@H]2CC[C@@H](C(=O)N3CC[C@@H](N4CCOCC4)C3)N2C1=O)c1cc2cc(C(F)(F)P(=O)(O)O)ccc2s1 [Compound 16, (difluoro(2-(((3S,6S,7aS,8aR,9aR)-3-((R)-3-morpholinopyrrolidine-1-carbonyl)-5-oxodecahydro-1H-cyclopropa[d]pyrrolo[1,2-a]azocin-6-yl)carbamoyl)benzo[b]thiophen-5-yl)methyl)phosphonic acid] | 0.1 to 1 µM | 3 to 30 µM
O=C(N[C@H]1C[C@@H]2C[C@@H]2C[C@H]2CC[C@@H](C(=O)N3CC[C@H](N4CCOCC4)C3)N2C1=O)c1cc2cc(C(F)(F)P(=O)(O)O)ccc2s1 [Compound 17, (difluoro(2-(((3S,6S,7aS,8aR,9aR)-3-((S)-3-morpholinopyrrolidine-1-carbonyl)-5-oxodecahydro-1H-cyclopropa[d]pyrrolo[1,2-a]azocin-6-yl)carbamoyl)benzo[b]thiophen-5-yl)methyl)phosphonic acid] | 0.1 to 1 µM | 3 to 30 µM
O=C(N[C@H]1C[C@@H]2C[C@@H]2C[C@H]2CC[C@@H](C(=O)N3CC(C(=O)N4CCOCC4)C3)N2C1=O)c1cc2cc(C(F)P(=O)(O)O)ccc2s1 (stereo partly drawn) [Compound 18, (fluoro(2-(((3S,6S,7aS,8aR,9aR)-3-(3-(morpholine-4-carbonyl)azetidine-1-carbonyl)-5-oxodecahydro-1H-cyclopropa[d]pyrrolo[1,2-a]azocin-6-yl)carbamoyl)benzo[b]thiophen-5-yl)methyl)phosphonic acid] | < 0.1 µM | 3 to 30 µM
C[C@@H]1[C@@H](n2ccnc2)CN1C(=O)[C@@H]1CC[C@@H]2C[C@H]3C[C@H]3C[C@H](NC(=O)c3cc4cc(C(F)(F)P(=O)(O)O)ccc4s3)C(=O)N21 [Compound 19, ((2-(((3S,6S,7aS,8aR,9aR)-3-((2R,3S)-3-(1H-imidazol-1-yl)-2-methylazetidine-1-carbonyl)-5-oxodecahydro-1H-cyclopropa[d]pyrrolo[1,2-a]azocin-6-yl)carbamoyl)benzo[b]thiophen-5-yl)difluoromethyl)phosphonic acid] | < 0.1 µM | 3 to 30 µM
O=C(NC1C[C@@H]2C[C@@H]2C[C@H]2CC[C@@H](C(=O)N3CC(C(=O)N4CCOCC4)C3)N2C1=O)c1cc2cc(CP(=O)(O)O)ccc2s1 (stereo partly drawn) [Compound 20, ((2-(((3S,7aS,8aR,9aR)-3-(3-(morpholine-4-carbonyl)azetidine-1-carbonyl)-5-oxodecahydro-1H-cyclopropa[d]pyrrolo[1,2-a]azocin-6-yl)carbamoyl)benzo[b]thiophen-5-yl)methyl)phosphonic acid] | 1 to 10 µM | > 30 µM
O=C(N[C@H]1C[C@H]2C[C@H]2C[C@H]2CC[C@@H](C(=O)N3CC(c4cccnc4)C3)N2C1=O)c1cc2cc([C@H](F)P(=O)(O)O)ccc2s1 [Compound 21, ((R)-fluoro(2-(((3S,6S,7aR,8aS,9aR)-5-oxo-3-(3-(pyridin-3-yl)azetidine-1-carbonyl)decahydro-1H-cyclopropa[d]pyrrolo[1,2-a]azocin-6-yl)carbamoyl)benzo[b]thiophen-5-yl)methyl)phosphonic acid] | < 0.1 µM | 3 to 30 µM
O=C(N[C@H]1C[C@H]2C[C@H]2C[C@H]2CC[C@@H](C(=O)N3CC(c4cccnc4)C3)N2C1=O)c1cc2cc(CP(=O)(O)O)ccc2s1 [Compound 22, ((2-(((3S,6S,7aR,8aS,9aR)-5-oxo-3-(3-(pyridin-3-yl)azetidine-1-carbonyl)decahydro-1H-cyclopropa[d]pyrrolo[1,2-a]azocin-6-yl)carbamoyl)benzo[b]thiophen-5-yl)methyl)phosphonic acid] | 0.1 to 1 µM | > 30 µM
O=C(N[C@H]1C[C@H]2C[C@H]2C[C@H]2CC[C@@H](C(=O)N3CC(c4ccccn4)C3)N2C1=O)c1cc2cc(CP(=O)(O)O)ccc2s1 [Compound 23, ((2-(((3S,6S,7aR,8aS,9aR)-5-oxo-3-(3-(pyridin-2-yl)azetidine-1-carbonyl)decahydro-1H-cyclopropa[d]pyrrolo[1,2-a]azocin-6-yl)carbamoyl)benzo[b]thiophen-5-yl)methyl)phosphonic acid] | 0.1 to 1 µM | > 30 µM
O=C(N[C@H]1C[C@@H]2C[C@@H]2C[C@H]2CC[C@@H](C(=O)N3CC(n4ccnc4)C3)N2C1=O)c1cc2cc(CP(=O)(O)O)ccc2s1 [Compound 24, ((2-(((3S,6S,7aS,8aR,9aR)-3-(3-(1H-imidazol-1-yl)azetidine-1-carbonyl)-5-oxodecahydro-1H-cyclopropa[d]pyrrolo[1,2-a]azocin-6-yl)carbamoyl)benzo[b]thiophen-5-yl)methyl)phosphonic acid] | 0.1 to 1 µM | > 30 µM
O=C(N[C@H]1C[C@H]2C[C@H]2C[C@H]2CC[C@@H](C(=O)N3CC(n4ccnc4)C3)N2C1=O)c1cc2cc(CP(=O)(O)O)ccc2s1 [Compound 25, ((2-(((3S,6S,7aR,8aS,9aR)-3-(3-(1H-imidazol-1-yl)azetidine-1-carbonyl)-5-oxodecahydro-1H-cyclopropa[d]pyrrolo[1,2-a]azocin-6-yl)carbamoyl)benzo[b]thiophen-5-yl)methyl)phosphonic acid] | 0.1 to 1 µM | > 30 µM
